Measured values from patent publication US6506607B1, “Methods and compositions for the identification and assessment of prostate cancer therapies and the diagnosis of prostate cancer” (Millennium Pharmaceuticals, Inc., priority 1997, dated 2003).

System: LNCaP cells
Description: After 25 hours of incubation in testosterone-containing medium, the cells were detached from the flasks with trypsin and pelleted. Five T162 flasks of pretreated cells were used as a control. Untreated cells were collected in the same manner.
Total RNA was prepared from the cell pellets using the RNeasy protocol (Qiagen).
The PCR products representing partial cDNAs of putatively differentially expressed mRNAs were subcloned into pCR2.1 (InVitrogen) and transformed into INValphaF^1 cells.
The differentially expressed genes were then identified by screening on a Gene Expression Micro-Array™ (Synteni, Inc.; Fremont, Calif.).
In some cases only a partial sequence is presented in the corresponding figure. The various methods described herein can employ complete sequences or fragments thereof.

C[C@]12CC[C@H]3[C@@H](CCC4=CC(=O)CC[C@@]43C)[C@@H]1CC[C@@H]2O [testosterone]
Fold Increase In mRNA: 54 kDa progesterone receptor-associated immunophilin FKBP54: 2.5 | Fold Increase In mRNA: Ankyrin G (ANK-3) (U13616): 2.7 | Fold Increase In mRNA: Aryl hydrocarbon receptor nuclear translocator: 4.6 | Fold Increase In mRNA: BM28 mRNA/DNA replication licensing factor (huMCM2): 2.4 | Fold Increase In mRNA: Cell division protein kinase 6: 3.1 | Fold Increase In mRNA: Cytochrome b5: 3.3 | Fold Increase In mRNA: ESTs {23605}: 2.5 | Fold Increase In mRNA: ESTs {26259}: 5 | Fold Increase In mRNA: ESTs {32161}: 2.5 | Fold Increase In mRNA: ESTs {41700}: 4 | Fold Increase In mRNA: ESTs {46287}: 3 | Fold Increase In mRNA: ESTs {48537}: 4.5 | Fold Increase In mRNA: ESTs {51591}: 2.3 | Fold Increase In mRNA: ESTs {52371}: 2.6 | Fold Increase In mRNA: ESTs {128055}: 2.8 | Fold Increase In mRNA: ESTs {128990}: 5 | Fold Increase In mRNA: ESTs {131591}: 2.3 | Fold Increase In mRNA: ESTs {135326}: 3.4 | Fold Increase In mRNA: ESTs {141115}: 2.3 | Fold Increase In mRNA: ESTs {151339}: 2.4 | Fold Increase In mRNA: ESTs {174787}: 2.4 | Fold Increase In mRNA: ESTs {177150}: 3.1 | Fold Increase In mRNA: ESTs {180082}: 2.1 | Fold Increase In mRNA: ESTs {195079}: 4.3 | Fold Increase In mRNA: ESTs {221118}: 4.4 | Fold Increase In mRNA: ESTs {230447}: 2.4 | Fold Increase In mRNA: ESTs {242643}: 4.1 | Fold Increase In mRNA: ESTs {249347}: 3.5 | Fold Increase In mRNA: ESTs {264293}: 3 | Fold Increase In mRNA: ESTs {297463}: 2.3 | Fold Increase In mRNA: ESTs {301487}: 3.8 | Fold Increase In mRNA: ESTs {344156}: 5.9 | Fold Increase In mRNA: ESTs {364477}: 2.5 | Fold Increase In mRNA: ESTs {364618}: 2.7 | Fold Increase In mRNA: ESTs {375900}: 3.1 | Fold Increase In mRNA: ESTs {415795}: 2.8 | Fold Increase In mRNA: ESTs {429349}: 3 | Fold Increase In mRNA: ESTs {469725}: 3.7 | Fold Increase In mRNA: ESTs {471083}: 2.6 | Fold Increase In mRNA: ESTs {488092}: 2.5 | Fold Increase In mRNA: EXT1 = putative tumor suppressor/hereditary mult. exostoses candidate gene: 2.4 | Fold Increase In mRNA: Eukaryotic initiation factor 1A: 2.4 | Fold Increase In mRNA: Fibronectin (S00848, transformation-associated human fragment): 2.8 | Fold Increase In mRNA: Gelsolin precursor: 2.8 | Fold Increase In mRNA: Guanine nucleotide exchange factor MSS4 (U74324) (−76 nucleotide): 2.7 | Fold Increase In mRNA: HEK2 protein tyrosine kinase receptor: 2.6 | Fold Increase In mRNA: High mobility group protein HMG1 (X12597): 2.6 | Fold Increase In mRNA: Histone H2AZ: 2.5 | Fold Increase In mRNA: Immunoglobulin rearranged H-chain V-region (C-D-J Hg): 3.6 | Fold Increase In mRNA: KIAA0018 gene (D13643): 3.3 | Fold Increase In mRNA: Kinesin-related protein: 4.8 | Fold Increase In mRNA: L-lactate dehydrogenase M chain (X02152, M17516): 3 | Fold Increase In mRNA: Monoamine oxidase: 5.5 | Fold Increase In mRNA: Myeloblast KIAA0130 gene (D50920): 3.3 | Fold Increase In mRNA: Neprilysin: 2.8 | Fold Increase In mRNA: Phospholipase A2 (M22430): 2.7 | Fold Increase In mRNA: Pyruvate kinase (M26252) = human TCB gene encoding cytosolic thyroid hormone-binding protein: 2.3 | Fold Increase In mRNA: Ras-like GTP-binding protein RAN: 2.6 | Fold Increase In mRNA: S-adenosylmethionine decarboxylase: 2.3 | Fold Increase In mRNA: S-adenosylmethionine decarboxylase proenzyme (M21154): 2.5 | Fold Increase In mRNA: STS (WI 12919): 7.7 | Fold Increase In mRNA: STS (WI-8530): 5 | Fold Increase In mRNA: Simian T-cell lymphotropic virus type I DNA for tax/rex region: 2.3 | Fold Increase In mRNA: Spectrin alpha chain: 3.5 | Fold Increase In mRNA: Thyroid receptor interactor (TRIP7) (L40357) (−92 nucleotide): 2.4 | Fold Increase In mRNA: Tubulin beta 1 chain: 2.8 | Fold Increase In mRNA: UDP glucuronosyltransferase precursor (UGT2B15): 2.8 | Fold Increase In mRNA: UDP-glucuronosyltransferase 2B7 precursor: 3.9 | Fold Increase In mRNA: Vacuolar ATP synthase subunit AC39; or bovine (P17694) NADH-ubiquinone oxidoreductase 49 kD subunit: 3.1 | Fold Increase In mRNA: Yeast guanine nucleotide-binding protein beta subunit-like protein: 2.4 | Fold Increase In mRNA: p0071 protein (X81889): 2.4
